This note sets out measurements from patent US9309213B2, “C-3 substituted bicyclooctane based HIV protease inhibitors” (Purdue Research Foundation, priority 2011, dated 2016).

Broadly, the EC50 is the concentration giving half of the maximal effect. What is called IC50 is the concentration at which inhibition is half-maximal.

Holding throughout (type): cell-based
In experiment [1] the test system is HIV-1ERS104pre (wild type). Nature of the experiment: Antiviral assay in PHA-PBMs, inhibition of p24 Gag protein production, wild-type isolate.
In a further experiment the test system is HIV-1MDR/B. The experiment can be described thus: microbe, parasite or virus in culture. As to conditions: for EC50 / fold-change in EC50: Table 4; for EC50: HIV-1MDR/B (X4), PHA-PBMs, p24 Gag; for fold-change in EC50: HIV-1MDR/B compared to wild-type HIV-1ERS104pre; for IC50: Human immunodeficiency virus 1, read-out: IC50 ± SDs.
The next experiment deals with HIV-1MDR/C. Nature of the experiment: microbe, parasite or virus in culture. The note with it: for EC50 / fold-change in EC50: Table 4; for EC50: HIV-1MDR/C (X4), PHA-PBMs, p24 Gag; for fold-change in EC50: HIV-1MDR/C compared to wild-type HIV-1ERS104pre; for IC50: Human immunodeficiency virus 1, read-out: IC50 ± SDs.
The subject of another experiment is HIV-1MDR/G. Nature of the experiment: microbe, parasite or virus in culture. The note with it: for EC50 / fold-change in EC50: Table 4; for EC50: HIV-1MDR/G (X4), PHA-PBMs, p24 Gag; for fold-change in EC50: HIV-1MDR/G compared to wild-type HIV-1ERS104pre; for IC50: Human immunodeficiency virus 1, read-out: IC50 ± SDs.
In the next experiment the test system is HIV-1MDR/TM. The experiment can be described thus: microbe, parasite or virus in culture. As to conditions: for EC50 / fold-change in EC50: Table 4; for EC50: HIV-1MDR/TM (X4), PHA-PBMs, p24 Gag; for fold-change in EC50: HIV-1MDR/TM compared to wild-type HIV-1ERS104pre; for IC50: Human immunodeficiency virus 1, read-out: IC50 ± SDs.
Experiment [2] deals with multidrug-resistant HIV-1 variants. The experiment can be described thus: Antiviral activity against the panel of multidrug-resistant HIV-1 variants. As to the method:
Inhibitors 22 with a 3(S)-hydroxyl group and 25 with a 3(R)-hydroxyl group on the Cp-THF ligand were tested against a panel of multidrug-resistant HIV-1 variants. […] The contrast in antiviral activity of 22 compared to 25 underlines the importance of the stereochemistry at the 3-position of the Cp-THF ligand.
Such a stark contrast in antiviral activities underlines the importance of the stereochemistry at the 3-position of the P2 ligand.

A further experiment relates to HIV-1LAI. Nature of the experiment: In vitro antiviral assay, MT-2 cells exposed to HIV-1LAI, MTT assay. (Formazan colour is commonly taken as a measure of viable cells.)
[3] abbreviates: Human immunodeficiency virus 1, MT2, Table 1, MT-2 cells, 100 TCID50s of HIV-1LAI, MTT assay, means of at least two experiments.
Where [4] appears, read: Human immunodeficiency virus 1, MT2, read-out: antiviral IC50.
Where [5] appears, read: Human immunodeficiency virus 1, read-out: IC50 ± SDs.

Like-named read-outs stand apart in the source and are kept apart here. Some results are limits rather than exact numbers.

With `COC(=O)N[C@H]1CO[C@@H]2C[C@H](OC(=O)N[C@@H](Cc3ccccc3)[C@H](O)CN(CC(C)C)S(=O)(=O)c3ccc(OC)cc3)C[C@H]12` [Inhibitor 19m], the EC50 in experiment [1] (wild-type HIV-1ERS104pre, read-out: EC50) is 3 nM; in the experiment on HIV-1MDR/B it was 18 ± 3 nM; in the experiment on HIV-1MDR/C, 15 ± 5 nM; in the experiment on HIV-1MDR/G it was 20 ± 5 nM; with HIV-1MDR/TM it was 24 ± 4 nM; in experiment [2] (range over the strains) it was 15 to 24 nM. The “fold-change in EC50” value in the experiment with HIV-1MDR/B is reported as 6; with HIV-1MDR/C it was 5; with HIV-1MDR/G, 7; in the experiment on HIV-1MDR/TM it was 8.
`COC(=O)N[C@@H]1CO[C@@H]2C[C@H](OC(=O)N[C@@H](Cc3ccccc3)[C@H](O)CN(CC(C)C)S(=O)(=O)c3ccc(OC)cc3)C[C@H]12` [Inhibitor 19l]: the EC50 came out at 29 ± 2 nM in experiment [1] (Table 4, HIV-1ERS104pre (wt), PHA-PBMs, p24 Gag, read-out: EC50 ± SDs); 75 ± 11 nM in the experiment with HIV-1MDR/B; 30 ± 6 nM with HIV-1MDR/C; 39 ± 1 nM in the experiment on HIV-1MDR/G; 74 ± 6 nM with HIV-1MDR/TM. Besides, the “fold-change in EC50” value was found to be 3 with HIV-1MDR/B, 1 with HIV-1MDR/C, 1 in the experiment on HIV-1MDR/G and 3 in the experiment on HIV-1MDR/TM. Moreover, the “fold changes in EC50” value in experiment [2] (all MDR HIV-1 viruses versus wild type) is under 3.
Consider `COc1ccc(S(=O)(=O)N(CC(C)C)C[C@@H](O)[C@H](Cc2ccccc2)NC(=O)O[C@@H]2C[C@@H]3[C@@H](O)CO[C@@H]3C2)cc1` [Inhibitor 25], for which the IC50 was found to be 2.9 nM in the experiment on HIV-1LAI (setting [3]); 2.9 nM in the experiment with HIV-1LAI (setting [4]); 2.9 nM in experiment [1] (Human immunodeficiency virus 1); 2.9 ± 0.8 nM in experiment [1] (setting [5]); 29 ± 7 nM in the experiment with HIV-1MDR/B; 22 ± 3 nM in the experiment on HIV-1MDR/C. Further, the IC50 with HIV-1MDR/G was 4.5 ± 0.7 nM; in the experiment on HIV-1MDR/TM, 3.1 ± 2 nM; in experiment [2] (Human immunodeficiency virus 1, read-out: IC50 values against various multidrug-resistant HIV-1 strains) it was 2.9 to 29 nM.
Consider `COc1ccc(S(=O)(=O)N(CC(C)C)C[C@@H](O)[C@H](Cc2ccccc2)NC(=O)O[C@@H]2C[C@@H]3[C@H](O)CO[C@@H]3C2)cc1` [Inhibitor 22, (3S,3aR,5R,6aR)-3-hydroxyhexahydro-2H-cyclopenta[b]furan-5-yl (2S,3R)-3-hydroxy-4-(4-(methoxy)-N-isobutylphenylsulfonamido)-1-phenylbutan-2-ylcarbamate], for which the IC50 is 5 nM in the experiment on HIV-1LAI (setting [3]); 5 nM in the experiment with HIV-1LAI (setting [4]); 7 nM in the experiment with HIV-1LAI (Table 1, MT-2 cells, 100 TCID50s of HIV-1LAI, MTT assay, means of at least two experiments); 20 nM in experiment [1] (Human immunodeficiency virus 1); 20 ± 4 nM in experiment [1] (setting [5]); over 1000 nM in the experiment on HIV-1MDR/B. Also, the IC50 was over 1000 nM with HIV-1MDR/C, 270 ± 20 nM in the experiment on HIV-1MDR/G and 41 ± 4 nM in the experiment on HIV-1MDR/TM.
